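1) Cells in 96-well plates. 2) Compound, 48 h, 5 concentrations. 3) Linear interpolation between surrounding doses. 4) Unreached endpoint = highest concentration. Abbreviation: GI50, concentration required for 50% inhibition of growth.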 Calls of active or inactive are those of the source. No stated cut-off is given here; in the data, active = GI50 up to about 1.1 µM and inactive = higher.
Legend:
Experiment in all cases: NCI tumour cell line growth inhibition, 48 h
UO-31 = test system: UO-31
CCRF-CEM = test system: CCRF-CEM
CAKI-1 = test system: CAKI-1
RPMI-8226 = test system: RPMI-8226
OVCAR-5 = test system: OVCAR-5
PC-3 = test system: PC-3
HL-60 = test system: HL-60
NCI-H23 = test system: NCI-H23
MDA-MB-231 = test system: MDA-MB-231
UACC-257 = test system: UACC-257
DU-145 = test system: DU-145
COLO 205 = test system: COLO 205
HCT-116 = test system: HCT-116
EKVX = test system: EKVX
SF-539 = test system: SF-539
BT-549 = test system: BT-549
MDA-N = test system: MDA-N
IGROV-1 = test system: IGROV-1
OVCAR-4 = test system: OVCAR-4
NCI-H522 = test system: NCI-H522
SNB-75 = test system: SNB-75
T47D = test system: T47D
SK-OV-3 = test system: SK-OV-3
HT-29 = test system: HT-29
HOP-92 = test system: HOP-92
Malme-3M = test system: Malme-3M
A498 = test system: A498
HCC 2998 = test system: HCC 2998
MCF7 = test system: MCF7
SR = test system: SR
SK-MEL-5 = test system: SK-MEL-5
K562 = test system: K562
LOX IMVI = test system: LOX IMVI
NCI-H226 = test system: NCI-H226
SK-MEL-28 = test system: SK-MEL-28
U-251 = test system: U-251
UACC-62 = test system: UACC-62
MOLT-4 = test system: MOLT-4
OVCAR-3 = test system: OVCAR-3
MDA-MB-435 = test system: MDA-MB-435
A549 = test system: A549
M14 = test system: M14
HCT-15 = test system: HCT-15
NCI/ADR-RES = test system: NCI/ADR-RES
SF-295 = test system: SF-295
Hs-578T = test system: Hs-578T
SNB-19 = test system: SNB-19
OVCAR-8 = test system: OVCAR-8
HOP-62 = test system: HOP-62
SW-620 = test system: SW-620
TK-10 = test system: TK-10
SN12C = test system: SN12C
ACHN = test system: ACHN
786-0 = test system: 786-0
NCI-H460 = test system: NCI-H460
RXF 393 = test system: RXF 393
SF-268 = test system: SF-268
KM12 = test system: KM12
SK-MEL-2 = test system: SK-MEL-2

Q: Which results are given for COC(=O)c1ccc(/C=C2\CCc3ccccc3C2=O)cc1?
A: GI50 (UO-31): > 100 µM (inactive); GI50 (CCRF-CEM): > 100 µM (inactive); GI50 (CAKI-1): > 100 µM (inactive); GI50 (RPMI-8226): > 100 µM (inactive); GI50 (OVCAR-5): > 100 µM (inactive); GI50 (PC-3): > 100 µM (inactive); GI50 (HL-60): > 100 µM (inactive); GI50 (NCI-H23): > 100 µM (inactive); GI50 (MDA-MB-231): > 100 µM (inactive); GI50 (UACC-257): > 100 µM (inactive); GI50 (DU-145): > 100 µM (inactive); GI50 (COLO 205): > 100 µM (inactive); GI50 (HCT-116): > 100 µM (inactive); GI50 (EKVX): > 100 µM (inactive); GI50 (SF-539): > 100 µM (inactive); GI50 (BT-549): > 100 µM (inactive); GI50 (MDA-N): > 100 µM (inactive); GI50 (IGROV-1): > 100 µM (inactive); GI50 (OVCAR-4): > 100 µM (inactive); GI50 (NCI-H522): 69.7 µM (inactive); GI50 (SNB-75): > 100 µM (inactive); GI50 (T47D): > 100 µM (inactive); GI50 (SK-OV-3): > 100 µM (inactive); GI50 (HT-29): > 100 µM (inactive); GI50 (HOP-92): > 100 µM (inactive); GI50 (Malme-3M): > 100 µM (inactive); GI50 (A498): 34.4 µM (inactive); GI50 (HCC 2998): > 100 µM (inactive); GI50 (MCF7): > 100 µM (inactive); GI50 (SR): > 100 µM (inactive); GI50 (SK-MEL-5): > 100 µM (inactive); GI50 (K562): > 100 µM (inactive); GI50 (LOX IMVI): > 100 µM (inactive); GI50 (NCI-H226): > 100 µM (inactive); GI50 (SK-MEL-28): > 100 µM (inactive); GI50 (U-251): > 100 µM (inactive); GI50 (UACC-62): > 100 µM (inactive); GI50 (MOLT-4): > 100 µM (inactive); GI50 (OVCAR-3): > 100 µM (inactive); GI50 (MDA-MB-435): > 100 µM (inactive); GI50 (A549): > 100 µM (inactive); GI50 (M14): > 100 µM (inactive); GI50 (HCT-15): > 100 µM; GI50 (NCI/ADR-RES): > 100 µM (inactive); GI50 (SF-295): > 100 µM (inactive); GI50 (Hs-578T): > 100 µM (inactive); GI50 (SNB-19): > 100 µM (inactive); GI50 (OVCAR-8): > 100 µM (inactive); GI50 (HOP-62): > 100 µM (inactive); GI50 (SW-620): > 100 µM (inactive); GI50 (TK-10): > 100 µM (inactive); GI50 (SN12C): > 100 µM (inactive); GI50 (ACHN): > 100 µM (inactive); GI50 (786-0): > 100 µM (inactive); GI50 (NCI-H460): > 100 µM (inactive); GI50 (RXF 393): > 100 µM (inactive); GI50 (SF-268): > 100 µM (inactive); GI50 (KM12): > 100 µM (inactive)

Q: Which results are given for O=C(N/N=C/c1ccc([N+](=O)[O-])o1)c1ccc(C(=O)N/N=C/c2ccc([N+](=O)[O-])o2)cc1?
A: GI50 (UO-31): > 100 µM (inactive); GI50 (CCRF-CEM): 14.8 µM (inactive); GI50 (CAKI-1): 35.4 µM (inactive); GI50 (RPMI-8226): 2.55 µM (inactive); GI50 (OVCAR-5): > 100 µM (inactive); GI50 (PC-3): 64.7 µM (inactive); GI50 (HL-60): 21.7 µM (inactive); GI50 (NCI-H23): 42.3 µM (inactive); GI50 (MDA-MB-231): > 100 µM (inactive); GI50 (DU-145): 64.4 µM (inactive); GI50 (COLO 205): 28.1 µM (inactive); GI50 (HCT-116): 30.1 µM (inactive); GI50 (EKVX): > 100 µM (inactive); GI50 (SF-539): 14.9 µM (inactive); GI50 (BT-549): > 100 µM (inactive); GI50 (MDA-N): 20.7 µM (inactive); GI50 (IGROV-1): 30.7 µM (inactive); GI50 (OVCAR-4): 45 µM (inactive); GI50 (NCI-H522): 48.3 µM (inactive); GI50 (SNB-75): > 100 µM (inactive); GI50 (T47D): 41.3 µM (inactive); GI50 (SK-OV-3): > 100 µM (inactive); GI50 (HT-29): 38.6 µM (inactive); GI50 (HOP-92): 53.8 µM (inactive); GI50 (Malme-3M): 21.2 µM (inactive); GI50 (A498): 8.87 µM (inactive); GI50 (MCF7): 15.7 µM (inactive); GI50 (SR): 29.8 µM (inactive); GI50 (SK-MEL-2): 74.5 µM (inactive); GI50 (SK-MEL-5): 22.6 µM (inactive); GI50 (K562): 34.4 µM (inactive); GI50 (LOX IMVI): 34.2 µM (inactive); GI50 (NCI-H226): > 100 µM (inactive); GI50 (SK-MEL-28): 13.2 µM (inactive); GI50 (U-251): 50.2 µM (inactive); GI50 (UACC-62): 13.8 µM (inactive); GI50 (MOLT-4): 23.8 µM (inactive); GI50 (OVCAR-3): 26.1 µM (inactive); GI50 (MDA-MB-435): 16.2 µM (inactive); GI50 (A549): 45.5 µM (inactive); GI50 (M14): 35.5 µM (inactive); GI50 (HCT-15): 29.8 µM; GI50 (NCI/ADR-RES): 73.3 µM (inactive); GI50 (SF-295): 40.4 µM (inactive); GI50 (Hs-578T): > 100 µM (inactive); GI50 (SNB-19): 51.4 µM (inactive); GI50 (OVCAR-8): 28.4 µM (inactive); GI50 (HOP-62): 47.8 µM (inactive); GI50 (SW-620): 22.4 µM (inactive); GI50 (SN12C): 42.8 µM (inactive); GI50 (ACHN): 10.2 µM (inactive); GI50 (786-0): 76.2 µM (inactive); GI50 (RXF 393): 36.6 µM (inactive); GI50 (SF-268): 64.7 µM (inactive); GI50 (KM12): 28.5 µM (inactive)

Q: Which results are given for NC(=S)N/N=C\c1ccc(OCc2cccc(COc3ccc(/C=N/NC(N)=S)cc3)n2)cc1?
A: GI50 (UO-31): 15.3 µM (inactive); GI50 (CCRF-CEM): 45.7 µM (inactive); GI50 (CAKI-1): 17 µM (inactive); GI50 (RPMI-8226): 4.33 µM (inactive); GI50 (OVCAR-5): 17.3 µM (inactive); GI50 (PC-3): 21.6 µM (inactive); GI50 (HL-60): 10.5 µM (inactive); GI50 (NCI-H23): 69.3 µM (inactive); GI50 (MDA-MB-231): 5.25 µM (inactive); GI50 (UACC-257): 20.2 µM (inactive); GI50 (DU-145): 34.8 µM (inactive); GI50 (COLO 205): 5.73 µM (inactive); GI50 (HCT-116): 12 µM (inactive); GI50 (EKVX): > 100 µM (inactive); GI50 (SF-539): > 100 µM (inactive); GI50 (BT-549): 2.39 µM (inactive); GI50 (MDA-N): 56.8 µM (inactive); GI50 (IGROV-1): 14.8 µM (inactive); GI50 (OVCAR-4): 44.2 µM (inactive); GI50 (NCI-H522): 2.88 µM (inactive); GI50 (SNB-75): > 100 µM (inactive); GI50 (T47D): 0.164 µM (active); GI50 (SK-OV-3): > 100 µM (inactive); GI50 (HT-29): > 100 µM (inactive); GI50 (HOP-92): > 100 µM (inactive); GI50 (Malme-3M): 86.5 µM (inactive); GI50 (A498): > 100 µM (inactive); GI50 (MCF7): 32.5 µM (inactive); GI50 (SR): 38.7 µM (inactive); GI50 (SK-MEL-2): 12.5 µM (inactive); GI50 (SK-MEL-5): 5.06 µM (inactive); GI50 (K562): 18.6 µM (inactive); GI50 (LOX IMVI): > 100 µM (inactive); GI50 (NCI-H226): > 100 µM (inactive); GI50 (SK-MEL-28): 22.9 µM (inactive); GI50 (U-251): 45.4 µM (inactive); GI50 (MOLT-4): 34.7 µM (inactive); GI50 (OVCAR-3): 32.7 µM (inactive); GI50 (MDA-MB-435): 63.8 µM (inactive); GI50 (A549): > 100 µM (inactive); GI50 (M14): 43.4 µM (inactive); GI50 (HCT-15): 43.7 µM; GI50 (NCI/ADR-RES): > 100 µM (inactive); GI50 (SF-295): > 100 µM (inactive); GI50 (Hs-578T): > 100 µM (inactive); GI50 (SNB-19): > 100 µM (inactive); GI50 (OVCAR-8): > 100 µM (inactive); GI50 (HOP-62): > 100 µM (inactive); GI50 (SW-620): > 100 µM (inactive); GI50 (TK-10): 76.7 µM (inactive); GI50 (SN12C): > 100 µM (inactive); GI50 (ACHN): 9.53 µM (inactive); GI50 (786-0): > 100 µM (inactive); GI50 (NCI-H460): > 100 µM (inactive); GI50 (RXF 393): 1.63 µM (inactive); GI50 (SF-268): > 100 µM (inactive); GI50 (KM12): > 100 µM (inactive)

Reference: ChEMBL document CHEMBL1201862, “PubChem BioAssay data set” (2004)
